Source: patent EP3057951B1, “METHYLENE LINKED QUINOLINYL MODULATORS OF ROR-GAMMA-T” (Janssen Pharmaceutica NV, priority 2013, dated 2015)
Values joined by “and” are separate entries in the source; they are usually repeats but may differ in a detail not shown here. Identical values can stand only once. Counter-ions that a name gives are not always drawn. Like-named read-outs stand apart in the source and are kept apart here.

Experiments:
[1] = target: T1, wild type human RORγt ligand binding domain (RORyt LBD) (Homo sapiens, UniProt P51449); assay: RORγt ThermoFluor assay (thermal shift, binding affinity KD)
T1 construct: His-tag (N); TurboTEV protease cleavage site (ENLYFQG) (N); made in house; host or cells: E. coli (pHIS1, modified pET vector)
T1 sequence (P51449 258-518): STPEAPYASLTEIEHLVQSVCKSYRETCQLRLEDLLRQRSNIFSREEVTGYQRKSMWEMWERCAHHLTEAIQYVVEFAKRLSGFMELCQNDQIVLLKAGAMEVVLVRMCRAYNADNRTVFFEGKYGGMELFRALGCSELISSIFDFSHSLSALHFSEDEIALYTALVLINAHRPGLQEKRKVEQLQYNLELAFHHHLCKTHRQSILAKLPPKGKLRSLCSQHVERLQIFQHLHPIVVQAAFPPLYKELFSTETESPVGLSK

[2] = target: T2, wild type human RORγt LBD (Homo sapiens, UniProt P51449); assay: RORγt (LBD) Reporter Assay (GAL4-luciferase, HEK293T cells); format: cell-based; details: for inhibition at 6 µM: HEK-293T, read-out: RORγt (LBD) Reporter Assay, % inhibition @ 6 µM, 6 µM compound concentration; for RORγt (LBD) Reporter Assay, % inhibition @ 6 µM: 6 µM compound concentration
T2 construct: expressed in transfected cells; host or cells: HEK293T
T2 sequence (P51449 258-518): T1 sequence (P51449 258-518)

[3] = HEK293T cells, value after the comma with ∼, > or < could not be included in the average

Kd [1] | IC50 [2, 3] | inhibition at 6 µM [2] | IC50 ([2]; HEK293T cells) | inhibition at 6 µM ([2]; HEK293T cells) | RORγt (LBD) Reporter Assay, % inhibition @ 6 µM ([2]; HEK293T cells) | RORγt (LBD) Reporter Assay, % inhibition @ 6 µM [2] | SMILES
1700 nM |  |  | 1500 nM | 110% |  |  | CON(C)c1nc2ccc(C(O)(c3ccc(C(F)(F)F)nc3)c3cncn3C)cc2c(N(C)OC)c1Cc1ccc(-n2cccn2)cc1 (stereo not drawn) [Example 129, {2,4-Bis[methoxy(methyl)amino]-3-[4-(1H-pyrazol-1-yl)benzyl]quinolin-6-yl}(1-methyl-1H-imidazol-5-yl)[6-(trifluoromethyl)pyridin-3-yl]methanol]
590 nM | 830 nM | 101% |  |  |  |  | COc1c(Cc2ccccc2)c(C(F)(F)F)nc2ccc(C(O)(c3ccccn3)c3cncn3C)cc12 (racemic) [Example 98a, (3-Benzyl-4-methoxy-2-(trifluoromethyl)quinolin-6-yl)(1-methyl-1H-imidazol-5-yl)(pyridin-2-yl)methanol•TFA]
80 nM |  |  | 230 nM | 102% |  |  | Cn1cncc1C(O)(c1ccc(C(F)(F)F)nc1)c1ccc2nc(N3CCCC3)c(Cc3ccc(-n4cccn4)cc3)c(Cl)c2c1 (single isomer, unassigned) [Example 145b, {4-Chloro-3-[4-(1H-pyrazol-1-yl)benzyl]-2-pyrrolidin-1-ylquinolin-6-yl}(1-methyl-1H-imidazol-5-yl)[6-(trifluoromethyl)pyridin-3-yl]methanol]
810 nM |  |  | 780 nM |  | 95% |  | Cn1cncc1C(O)(c1ccc(C(F)(F)F)nc1)c1ccc2nc(N3CCCC3)c(Cc3ccc(-n4cccn4)cc3)c(Cl)c2c1 (single isomer, unassigned) [Example 145c, {4-Chloro-3-[4-(1H-pyrazol-1-yl)benzyl]-2-pyrrolidin-1-ylquinolin-6-yl}(1-methyl-1H-imidazol-5-yl)[6-(trifluoromethyl)pyridin-3-yl]methanol]
12 nM |  |  | 47 nM |  | 98% |  | COc1nc2ccc(C(O)(c3ccc(F)cc3)c3cncn3C)cc2c(Cl)c1Cc1ccc(-n2cccn2)cc1 (single isomer, unassigned) [Example 160c, (3-(4-(1H-Pyrazol-1-yl)benzyl)-4-chloro-2-methoxyquinolin-6-yl)(4-fluorophenyl)(1-methyl-1H-imidazol-5-yl)methanol]
4.4 nM | 30 nM | 90% |  |  |  |  | Cn1cncc1C(O)(c1ccc(C(F)(F)F)nc1)c1ccc2nc(C(F)(F)F)c(Cc3ccccc3)c(C#N)c2c1 (stereo not drawn) [Example 108a, 3-Benzyl-6-(hydroxy(1-methyl-1H-imidazol-5-yl)(6-(trifluoromethyl)pyridin-3-yl)methyl)-2-(trifluoromethyl)quinoline-4-carbonitrile•TFA]
220 nM |  |  | 1600 nM |  | 100% |  | COc1nc2ccc(C(O)(c3ncccn3)c3cncn3C)cc2c(Cl)c1Cc1ccc(-n2cccn2)cc1 (single isomer, unassigned) [Example 131c, {4-Chloro-2-methoxy-3-[4-(1H-pyrazol-1-yl)benzyl]quinolin-6-yl}(1-methyl-1H-imidazol-5-yl)pyrimidin-2-ylmethanol]
1300 nM | 1900 nM | 94% |  |  |  |  | Cn1cncc1C(O)(c1ccc(Cl)cc1)c1ccc2nc(C(F)(F)F)c(Cc3ccccc3)c(O)c2c1 (stereo not drawn) [Example 102, 3-Benzyl-6-((4-chlorophenyl)(hydroxy)(1-methyl-1H-imidazol-5-yl)methyl)-2-(trifluoromethyl)quinolin4-ol•TFA]
110 nM | 670 nM |  |  |  |  | 94% | COc1c(Cc2ccccc2)c(C(F)(F)F)nc2ccc(C(O)(c3ccc(C(F)(F)F)nc3)c3cncn3C)cc12 (single isomer, unassigned) [Example 106b, (3-Benzyl-4-methoxy-2-(trifluoromethyl)quinolin-6-yl)(1-methyl-1H-imidazol-5-yl)(6-(trifluoromethyl)pyridin-3-yl)methanol]
60 nM |  |  | 210 nM | 99% |  |  | Cn1cncc1C(O)(c1ccc(C(F)(F)F)nc1)c1ccc2nc(N3CC(F)C3)c(Cc3ccc(-n4cccn4)cc3)c(Cl)c2c1 (single isomer, unassigned) [Example 147b, {4-Chloro-2-(3-fluoroazetidin-1-yl)-3-[4-(1H-pyrazol-1-yl)benzyl]quinolin-6-yl}(1-methyl-1H-imidazol-5-yl)[6-(trifluoromethyl)pyridin-3-yl]methanol]

Further lines, the compound ahead of its results:

SMILES | Kd [1] | IC50 [2, 3] | inhibition at 6 µM [2] | IC50 ([2]; HEK293T cells) | inhibition at 6 µM ([2]; HEK293T cells) | RORγt (LBD) Reporter Assay, % inhibition @ 6 µM ([2]; HEK293T cells) | RORγt (LBD) Reporter Assay, % inhibition @ 6 µM [2]
COc1nc2ccc(C(O)(c3ccc(C#N)cc3)c3cncn3C)cc2c(Cl)c1Cc1ccc(-n2cncn2)cc1 (single isomer, unassigned) [Example 14b, 4-((3-(4-(1H-1,2,4-Triazol-1-yl)benzyl)-4-chloro-2-methoxyquinolin-6-yl)(hydroxy)(1-methyl-1H-imidazol-5-yl)methyl)benzonitrile] | 140 nM | 120 nM | 105% |  |  |  | 
COc1nc2ccc(C(O)(c3ccc(C)nc3C)c3cncn3C)cc2c(Cl)c1Cc1ccc(C(F)(F)F)cc1 (racemic) [Example 88a, (4-Chloro-2-methoxy-3-(4-(trifluoromethyl)benzyl)quinolin-6-yl)(2,6-dimethylpyridin-3-yl)(1-methyl-1H-imidazol-5-yl)methanol] | 0.3 nM | 4.2 nM and ~20 nM | 98% |  |  |  | 
COCCOc1nc2ccc(C(O)(c3ccc(Cl)cc3)c3cncn3C)cc2c(Cl)c1Cc1ccc(-n2cccn2)cc1 (stereo not drawn) [Example 56] | 200 nM | 450 nM | 101% |  |  |  | 
CCc1nc2ccc(C(O)(c3cnnn3C)c3cnc(C)n3C)cc2c(Cl)c1Cc1ccc(C(F)(F)F)cc1 (single isomer, unassigned) [Example 25b, (4-Chloro-2-ethyl-3-(4-(trifluoromethyl)benzyl)quinolin-6-yl)(1,2-dimethyl-1H-imidazol-5-yl)(1-methyl-1H-1,2,3-triazol-5-yl)methanol] | 0.01 nM | 1.9 nM and < 3 nM | 100% |  |  |  | 
COc1nc2ccc(C(O)(c3sc(C)nc3C)c3cnnn3C)cc2cc1Cc1ccc(C(F)(F)F)cc1 (single isomer, unassigned) [Example 92c, (2,4-Dimethylthiazol-5-yl)(2-methoxy-3-(4-(trifluoromethyl)benzyl)quinolin-6-yl)(1-methyl-1H-1,2,3-triazol-5-yl)methanol] | 19 nM | 30 nM |  |  |  |  | 96%
COc1nc2ccc(C(O)(c3ccccc3)C3CCN(C(C)=O)CC3)cc2c(Cl)c1Cc1ccc(-n2cncn2)cc1 (single isomer, unassigned) [Example 18b, 1-(4-((3-(4-(1H-1,2,4-Triazol-1-yl)benzyl)-4-chloro-2-methoxyquinolin-6-yl)(hydroxy)(phenyl)methyl)piperidin-1-yl)ethanone] | 8 nM | 83 nM | 99% |  |  |  | 
COc1nc2ccc(C(O)(c3ccc(C#N)cc3)c3cncn3C)cc2c(C#N)c1Cc1ccc(-n2cncn2)cc1 (single isomer, unassigned) [Example 15c, 3-(4-(1H-1,2,4-Triazol-1-yl)benzyl)-6-((4-cyanophenyl)(hydroxy)(1-methyl-1H-imidazol-5-yl)methyl)-2-methoxyquinoline-4-carbonitrile] | 17 nM | 28 nM |  |  |  |  | 97%
COc1nc2ccc(C(O)(c3cc(C)nc(C)c3)c3cnnn3C)cc2c(Cl)c1Cc1ccc(C(F)(F)F)cc1 (single isomer, unassigned) [Example 84b, (4-Chloro-2-methoxy-3-(4-(trifluoromethyl)benzyl)quinolin-6-yl)(2,6-dimethylpyridin-4-yl)(1-methyl-1H-1,2,3-triazol-5-yl)methanol] | 180 nM | 210 nM | 103% |  |  |  | 
COc1nc2ccc(C(O)(c3ccc(C)nc3C)c3cnnn3C)cc2c(Cl)c1Cc1ccc(-n2cncn2)cc1 (single isomer, unassigned) [Example 22b, (3-(4-(1H-1,2,4-Triazol-1-yl)benzyl)-4-chloro-2-methoxyquinolin-6-yl)(2,6-dimethylpyridin-3-yl)(1-methyl-1H-1,2,3-triazol-5-yl)methanol] | 480 nM | 790 nM | 97% |  |  |  | 
COc1nc2ccc(C(O)(c3ccc(C)nc3C)c3cnnn3C)cc2c(Cl)c1Cc1ccc(-n2cccn2)cc1 (single isomer, unassigned) [Example 17c, (3-(4-(1H-Pyrazol-1-yl)benzyl)-4-chloro-2-methoxyquinolin-6-yl)(2,6-dimethylpyridin-3-yl)(1-methyl-1H-1,2,3-triazol-5-yl)methanol] | 0.29 nM | 9 nM |  |  |  |  | 101%
COc1nc2ccc(C(O)(c3cnnn3C)c3cnc(C)n3C)cc2c(Cl)c1Cc1ccc(C(F)(F)F)nc1 (single isomer, unassigned) [Example 43b, (4-Chloro-2-methoxy-3-((6-(trifluoromethyl)pyridin-3-yl)methyl)quinolin-6-yl)(1,2-dimethyl-1H-imidazol-5-yl)(1-methyl-1H-1,2,3-triazol-5-yl)methanol] | 0.49 nM | 10 nM | 98% |  |  |  | 
